Laboratory results published in patent US20250144067A1, “PERSONALIZED STARVATION THERAPY FOR CANCER” (Faeth Therapeutics, Inc., priority 2021, published 2025).
Where a name gives a salt, the structure may show the parent alone. Read-outs that look alike come from different tables or passages of the source.

Legend:
[1] = system: NCI-H292 lung cancer cells; test: FDA drug screening, complete media vs cholesterol-free media without statin (TABLE 1); assay type: cell-based, human
[2] = system: NCI-H292 lung cancer cells; test: FDA drug screening, complete media vs cholesterol-free media with simvastatin (TABLE 2); assay type: cell-based, human
[3] = NCI-H292 cells, FDA drug library screen, cholesterol-free media without statin
[4] = NCI-H292 cells, FDA drug library screen, complete media
[5] = NCI-H292 cells, cholesterol-free media without statin
[6] = NCI-H292 cells, drug in cholesterol-free media with simvastatin 0.04 μM
[7] = NCI-H292 cells, drug in complete media
[8] = NCI-H292 cells, cholesterol-free media without statin, FDA drug library screen
[9] = NCI-H292 cells, complete media, FDA drug library screen
[10] = complete vs cholesterol-free media, >0 enhanced anti-cancer activity, about 0 neutral, <0 antagonist
[11] = complete media vs cholesterol-free media + simvastatin (0.04 μM), >0 enhanced anti-cancer activity, about 0 neutral, <0 antagonist
[12] = Complete minus Cholesterol-free, >0 enhanced anti-cancer activity, about 0 neutral, <0 antagonist
[13] = NCI-H292 cells, FDA library drug in cholesterol-free media with simvastatin 0.04 μM
[14] = NCI-H292 cells, FDA library drug in complete media
[15] = NCI-H292 cells, FDA drug library screen, cholesterol-free media with simvastatin 0.04 μM
[16] = complete media minus cholesterol-free media + simvastatin, >0 enhanced anti-cancer activity, about 0 neutral, <0 antagonist
[17] = complete vs cholesterol-free media, greater than 0 enhanced anti-cancer activity, about 0 neutral, below 0 antagonists
[18] = NCI-H292 cells, cholesterol-free media with simvastatin 0.04 μM, cell growth value in FDA drug screen
[19] = NCI-H292 cells, complete media, cell growth value in FDA drug screen
[20] = Complete minus Cholesterol-free, greater than 0 enhanced anti-cancer activity, about 0 neutral, below 0 antagonist

CC[C@H]1[C@@H]2C[C@H]3[C@@H]4N(C)c5ccccc5[C@]45C[C@@H]([C@H]2[C@H]5O)N3[C@@H]1O [Ajmaline]
Difference ([1]; Complete minus Cholesterol-free, […]): −0.16 | Cholesterol-free [1, 3]: 1.107 | Complete [1, 4]: 0.943 | Cholesterol-free media + simvastatin (0.04 μM) ([2]; NCI-H292 cells, cholesterol-free media with simvastatin 0.04 μM, FDA drug library screen (TABLE 2)): 1.33 | Complete Media ([2]; NCI-H292 cells, complete media, FDA drug library screen (TABLE 2)): 1.333 | Difference ([2]; complete media minus cholesterol-free media + simvastatin (0.04 μM), […]): 0.00

CCC[S+]([O-])c1ccc2[nH]c(NC(=O)OC)nc2c1 (centres unmarked) [Albendazole sulfoxide]
Cholesterol-free [1, 5]: 1.467 | Complete ([1]; NCI-H292 cells, complete media): 1.005 | Difference ([1]; complete vs cholesterol-free media, […]): −0.46 | Cholesterol-free media + simvastatin (0.04 μM) [2, 6]: 1.376 | Complete Media [2, 7]: 1.125 | Difference ([2]; complete media vs cholesterol-free media + simvastatin (0.04 μM), […]): −0.25

CCCSc1ccc2nc(NC(=O)OC)[nH]c2c1 [Albendazole]
Cholesterol-free [1]: 0.9001 | Complete [1]: 0.9862 | Difference [1]: 0.09 | Cholesterol-free media + simvastatin (0.04 μM) [2]: 1.236 | Complete Media [2]: 0.9882 | Difference [2]: −0.25

CN1CCC(=C2c3ccccc3CCn3c(C=O)cnc32)CC1 [Alcaftadine]
Cholesterol-free [1]: 1.45 | Complete [1]: 1.003 | Difference [1]: −0.45 | Cholesterol-free media + simvastatin (0.04 μM) [2]: 1.165 | Complete Media [2]: 0.9908 | Difference [2]: −0.17

CCc1cc2c(cc1N1CCC(N3CCOCC3)CC1)C(C)(C)c1[nH]c3cc(C#N)ccc3c1C2=O [Alectinib (Hydrochloride)]
Cholesterol-free [1, 8]: 0.7945 | Complete [1, 9]: 1.394 | Difference [1, 10]: 0.60 | Cholesterol-free media + simvastatin (0.04 μM) [2, 6]: 0.8676 | Complete Media [2, 7]: 0.6682 | Difference [2, 11]: −0.20

CCc1cc2c(cc1N1CCC(N3CCOCC3)CC1)C(C)(C)c1[nH]c3cc(C#N)ccc3c1C2=O [Alectinib]
Difference [1, 12]: −0.21 | Cholesterol-free [1, 5]: 1.125 | Complete ([1]; NCI-H292 cells, complete media): 0.9146 | Cholesterol-free media + simvastatin (0.04 μM) [2, 13]: 1.385 | Complete Media [2, 14]: 1.02 | Difference [2, 11]: −0.37

NCCCC(O)(P(=O)(O)O)P(=O)(O)O [Alendronate (sodium hydrate)]
Cholesterol-free [1, 8]: 0.1249 | Complete [1, 9]: 0.2776 | Difference [1, 10]: 0.15 | Cholesterol-free media + simvastatin (0.04 μM) [2, 15]: 0.388 | Difference [2, 16]: 0.78

NCCCC(O)(P(=O)(O)O)P(=O)(O)O [Alendronic acid]
Cholesterol-free [1, 5]: 1.207 | Complete ([1]; NCI-H292 cells, complete media): 0.7802 | Difference [1, 17]: −0.43 | Cholesterol-free media + simvastatin (0.04 μM) [2, 18]: 0.8926 | Complete Media [2, 19]: 0.9547 | Difference [2, 16]: 0.06

COc1cc2nc(N(C)CCCNC(=O)C3CCCO3)nc(N)c2cc1OC (centres unmarked) [Alfuzosin (hydrochloride)]
Difference [1, 12]: −0.22 | Cholesterol-free [1, 5]: 1.203 | Complete ([1]; NCI-H292 cells, complete media): 0.9827 | Cholesterol-free media + simvastatin (0.04 μM) [2, 15]: 0.7758 | Complete Media [2, 4]: 1.007 | Difference [2, 16]: 0.23

COc1cc2nc(N(C)CCCNC(=O)C3CCCO3)nc(N)c2cc1OC (centres unmarked) [Alfuzosin]
Difference [1, 20]: −0.14 | Cholesterol-free [1, 3]: 0.9745 | Complete [1, 4]: 0.8372 | Cholesterol-free media + simvastatin (0.04 μM) [2, 15]: 1.185 | Complete Media [2, 4]: 1.024 | Difference [2, 11]: −0.16

C=CCc1cc(OC)c(O)c(C(=O)NCCO)c1 [Alibendol]
Difference [1, 12]: −0.25 | Cholesterol-free [1, 5]: 1.047 | Complete ([1]; NCI-H292 cells, complete media): 0.797 | Cholesterol-free media + simvastatin (0.04 μM) [2, 15]: 0.9518 | Complete Media [2, 4]: 0.8774 | Difference [2, 11]: −0.07

COCCCOc1cc(C[C@@H](C[C@H](N)[C@@H](O)C[C@H](C(=O)NCC(C)(C)C(N)=O)C(C)C)C(C)C)ccc1OC [Aliskiren]
Difference ([1]; Complete minus Cholesterol-free, greater than 0 enhanced anti-cancer activity, about 0 neutral, below 0 antagonists): −0.67 | Cholesterol-free ([1]; NCI-H292 cells in cholesterol-free media without statin): 1.754 | Complete ([1]; NCI-H292 cells in complete media): 1.084 | Cholesterol-free media + simvastatin (0.04 μM) [2, 13]: 1.326 | Complete Media [2, 14]: 0.8268 | Difference [2, 11]: −0.50

C=CCN1CCCC1CNC(=O)c1cc2[nH]nnc2cc1OC (centres unmarked) [Alizapride hydrochloride]
Cholesterol-free [1, 5]: 1.222 | Complete ([1]; NCI-H292 cells, complete media): 0.9062 | Difference [1, 17]: −0.32 | Cholesterol-free media + simvastatin (0.04 μM) [2, 18]: 1.019 | Complete Media [2, 19]: 1.057 | Difference [2, 16]: 0.04

NC(=O)NC1NC(=O)NC1=O (centres unmarked) [Allantoin]
Difference [1, 20]: −0.09 | Cholesterol-free [1, 3]: 0.5704 | Complete [1, 4]: 0.4823 | Cholesterol-free media + simvastatin (0.04 μM) [2, 13]: 1.146 | Complete Media [2, 14]: 0.6387 | Difference [2, 11]: −0.51

Oc1ncnc2[nH]ncc12 [Allopurinol]
Difference [1, 12]: −0.29 | Cholesterol-free [1, 5]: 1.198 | Complete ([1]; NCI-H292 cells, complete media): 0.9095 | Cholesterol-free media + simvastatin (0.04 μM) [2, 18]: 0.8896 | Complete Media [2, 19]: 0.9734 | Difference [2, 16]: 0.08
